Reference: PubChem BioAssay AID743097 (Vanderbilt Specialized Chemistry Center, 2013)
Calls of active or inactive are those of the source. How the calls were made is not given here.

Target: Muscarinic acetylcholine receptor M1 (Homo sapiens) (UniProt P11229)
Test: potentiation of ACh response at M1 – cell-based, human M1, selectivity assay for M5 PAM discovery project (AID 743097)
Conditions: CHO-K1 hM1, Fluo-4 calcium flux, ACh EC20 potentiation

Muscarinic acetylcholine receptor M1 (Homo sapiens), sequence (P11229 whole entry, looked up): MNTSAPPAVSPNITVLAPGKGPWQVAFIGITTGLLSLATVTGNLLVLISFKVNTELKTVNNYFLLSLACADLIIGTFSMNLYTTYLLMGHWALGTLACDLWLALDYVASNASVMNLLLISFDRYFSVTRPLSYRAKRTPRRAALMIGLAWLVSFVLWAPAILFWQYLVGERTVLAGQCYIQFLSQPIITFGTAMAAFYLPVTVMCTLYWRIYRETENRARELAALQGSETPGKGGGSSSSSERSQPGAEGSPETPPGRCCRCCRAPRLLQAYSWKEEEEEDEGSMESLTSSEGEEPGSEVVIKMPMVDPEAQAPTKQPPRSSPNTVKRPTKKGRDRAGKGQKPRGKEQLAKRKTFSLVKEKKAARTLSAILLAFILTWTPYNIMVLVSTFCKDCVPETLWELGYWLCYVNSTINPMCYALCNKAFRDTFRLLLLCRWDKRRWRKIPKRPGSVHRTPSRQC

Compound	EC50 [µM]
CCN(C(=O)C1CCN(S(=O)(=O)c2ccc3[nH]ncc3c2)CC1)[C@H](C)c1ccccc1	5.28
CCN(Cc1ccccc1Cl)C(=O)C1CCN(S(=O)(=O)c2ccc3cn[nH]c3c2)CC1	3.97

The remaining lines, values ahead:

EC50 [µM]	Compound
4.84	CCN(Cc1ccccc1C(F)(F)F)C(=O)C1(F)CCN(S(=O)(=O)c2ccc3[nH]ncc3c2)CC1
6.99	CCN(Cc1ccccc1C(F)(F)F)C(=O)C1CCN(S(=O)(=O)c2ccc3[nH]ncc3c2)CC1
2.52	CCN(Cc1ccccc1Cl)C(=O)C1CCN(S(=O)(=O)c2ccc3[nH]ncc3c2)CC1

Same assay, conditions: CHO-K1 hM1, Fluo-4 calcium flux, ACh EC20 potentiation; at 30 µM (top of the series)

% of ACh max response	Compound
inactive	CCN(C(=O)C1CCN(S(=O)(=O)c2ccc(OC)cc2)CC1)[C@H](C)c1ccccc1
